According to patent US4446141A, “Hypotensive piperidine derivatives” (priority 1978, dated 1984):
Structures can show the parent of a compound that is named as a salt. Where two headings read alike, the source gives them in different places.

Columns and labels:
blood pressure [1] = experiment: Experiment 6 Dosage-reaction curve, spontaneously hypertensive rats; assay type: in vivo; conditions: SHR, 50 mg/kg oral; average of five rats
Description: (§1) Experiment 6 Dosage-reaction curve: compared with betanidin
(§2) Five spontaneously hypertensive rats (16 weeks old) and five DOCA-sodium chloride loaded hypertensive rats (having been bred for 5 weeks after removing one kidney) were respectively used as one group.
(§3) As the test compounds, Compound 1 and betanidin sulfate, which is a known hypotensive agent, were used.
(§4) The test compounds were respectively dissolved in 0.3% (w/v) CMC aqueous solution and each of the resulting solutions was orally administered to the rats in a dose of 1 ml/100 g. The amounts of the solutions administered were equal per unit weight of rats and the concentrations thereof were varied according to the doses of the compounds indicated in Table 8. The maximum reduction in blood pressure after the administration was measured according to the method of tail artery plethysmography.

blood pressure [2] = experiment: Experiment 6 Dosage-reaction curve, DOCA-NaCl loaded hypertensive rats; assay type: in vivo, DOCA-sodium chloride loaded hypertensive rats; conditions: average of five rats
Description: as §1, §2, §3, §4

blood pressure [3] = experiment: Experiment 3 Hypotensive action (maximum reduction in blood pressure); assay type: in vivo, Wistar-strain rats; conditions: read-out: BP: Reduction of blood pressure
male dd-strain mice = conditions: mouse, in vivo
[4] = maximum reduction, oral, 5 mg per 100 g rat weight

Structure (SMILES) | maximum reduction in blood pressure (blood pressure [1]) | maximum reduction in blood pressure (blood pressure [2]; 1.0 mg/kg oral) | maximum reduction in blood pressure (blood pressure [2]; 10 mg/kg oral) | maximum reduction in blood pressure (blood pressure [2]; 50 mg/kg oral) | inhibition in vivo at 50 mg/kg (blood pressure [3]; [4]) | Number of Death I.P. (male dd-strain mice) | Number of Death P.O. (male dd-strain mice) | inhibition in vivo at 50 mg/kg (blood pressure [3]; Rattus norvegicus, po)
CN=C(NC)NCc1ccccc1 [Betanidin sulfate, betanidin sulfate] | -40 mmHg | -25 mmHg | -34 mmHg | -58 mmHg | – | – | – | –
CCOc1nc2ccccc2n1C1CCN(CC(O)c2ccc3c(c2)OCO3)CC1 (stereo not shown) [Compound 11, 1-[2-hydroxy-2-(3,4-methylenedioxyphenyl)-1-ethyl]-4-(2-ethoxy-1-benzimidazolinyl)-piperidine] | – | – | – | – | 6 to 10% | 0 | 0 | –
O=c1[nH]c2ccccc2n1C1=CCN(CCc2ccc3c(c2)OCO3)CC1 [Compound 12, 1-[2-(3,4-methylenedioxyphenyl)-1-ethyl]-4-(2-keto-1-benzimidazolinyl)-1,2,5,6-tetrahydropyridine] | – | – | – | – | 6 to 10% | 0 | 0 | –
COc1ccc(C(OC(C)=O)C(C)N2CCC(n3c(=O)n(C(C)=O)c4ccccc43)CC2)cc1OC (stereo not shown) [Compound 32, 1-[3-acetoxy-3-(3,4-dimethoxyphenyl)-2-propyl]-4-(3-acetyl-2-keto-1-benzimidazolinyl)-piperidine] | – | – | – | – | > 11% | 0 | 0 | –
COc1ccc(C(OC(C)=O)C(C)N2CCC(n3c(=O)[nH]c4ccccc43)CC2)cc1OC (stereo not shown) [Compound 34, 1-[3-acetoxy-3-(3,4-dimethoxyphenyl)-2-propyl]-4-(2-keto-1-benzimidazolinyl)-piperidine] | – | – | – | – | – | 0 | 0 | > 11%
CCOC(=O)n1c(=O)n(C2CCN(CC(=O)c3ccc(OC)c(OC)c3)CC2)c2ccccc21 [Compound 35, 1-[2-oxo-2-(3,4-dimethoxyphenyl)-1-ethyl]-4-(2-keto-3-ethoxycarbonyl-1-benzimidazolinyl)-piperidine] | – | – | – | – | > 11% | 0 | 0 | –
